Measured values: BindingDB's records for doi:10.1021/jm00398a022 (University of Wisconsin, 1988)

Biological target: Cathepsin D (Oryctolagus cuniculus)
Experiment: Inhibition of rabbit liver cathepsin D at pH 4.0

## COC(=O)[C@H](Cc1ccccc1)NC(=O)[C@H](CC(C)C)NC(=O)CC(O)[C@H](CC(C)C)NC(=O)[C@H](Cc1c[nH]cn1)NC(=O)COC(=O)C(C)(C)C (stereo partly drawn) [POA-His-Sta-Leu-PheOMe]
  Ki: 3.5 µM
